The source of these data is patent US7652022B2, “Diaryl urea derivatives useful for the treatment of protein kinase dependent diseases” (Novartis AG, priority 2002, dated 2010).

Molecules are shown by their SMILES.

Assay [1] addresses T1, c-Abl kinase (His-tagged kinase domain of c-Abl) (Homo sapiens, UniProt P00519).
T1 construct: The His-tagged kinase domain of c-Abl is cloned and expressed in the baculovirus/Sf9 system; His tag; made in house; host or cells: Sf9 insect cells (baculovirus)
T1 sequence (P00519 242-493 limits assumed): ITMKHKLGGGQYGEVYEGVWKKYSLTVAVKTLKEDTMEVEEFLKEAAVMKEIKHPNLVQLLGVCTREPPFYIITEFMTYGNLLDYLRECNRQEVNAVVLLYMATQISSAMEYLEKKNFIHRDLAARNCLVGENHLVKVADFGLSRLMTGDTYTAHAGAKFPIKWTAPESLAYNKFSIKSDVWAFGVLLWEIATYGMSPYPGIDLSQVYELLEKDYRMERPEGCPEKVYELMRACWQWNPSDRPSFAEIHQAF
Briefly: c-Abl protein-tyrosine kinase in vitro enzyme filter binding assay. Type of assay: biochemical. Particulars: % inhibition at 10 μM. As for the experimental part:
An in vitro enzyme assay is performed in 96-well plates as a filter binding assay as described by Geissler et al. in Cancer Res. 1992; 52:4492-4498, with the following modifications. The His-tagged kinase domain of c-Abl is cloned and expressed in the baculovirus/Sf9 system as described by Bhat et al. in J. Biol. Chem. 1997; 272:16170-16175. A protein of 37 kD (c-Abl kinase) is purified by a two-step procedure over a Cobalt metal chelate column followed by an anion exchange column with a yield of 1-2 mg/L of Sf9 cells (Bhat et al., reference cited). The purity of the c-Abl kinase is >90% as judged by SDS-PAGE after Coomassie blue staining. The assay contains (total volume of 30 μL): c-Abl kinase (50 ng), 20 mM Tris·HCl, pH 7.5, 10 mM MgCl2, 10 μM Na3VO4, 1 mM DTT and 0.06 μCi/assay [γ^33 P]-ATP (5 μM ATP) using 30 μg/mL poly-Ala,Glu,Lys,Tyr-6:2:5:1 (Poly-AEKY, Sigma P1152) in the presence of 1% DMSO. Reactions are terminated by adding 10 μL of 250 mM EDTA and 30 μL of the reaction mixture is transferred onto Immobilon-PVDF membrane (Millipore, Bedford, Mass., USA) previously soaked for 5 min with methanol, rinsed with water, then soaked for 5 min with 0.5% H3PO4 and mounted on vacuum manifold with disconnected vacuum source. After spotting all samples, vacuum is connected and each well rinsed with 200 μL 0.5% H3PO4. Membranes are removed and washed on a shaker with 0.5% H3PO4 (4 times) and once with ethanol. Membranes are counted after drying at ambient temperature, mounting in Packard TopCount 96-well frame, and addition of 10 μL/well of Microscint™ (Packard).
Enzymatic (c-Abl, KDR, Flt3) data are given on Table 17 (% inhibition at 10 μM). (Measurements are made as described above in the general description).

In assay [2] the target is T2, human VEGF-R2 receptor (KDR) (Homo sapiens, UniProt P35968).
T2 construct: expressed in transfected cells
As to the kind of experiment: Inhibition of VEGF-induced VEGF-R2 (KDR) autophosphorylation in transfected CHO cells, sandwich ELISA. Format: cell-based. Particulars: % inhibition at 10 μM. Here is the method: The inhibition of VEGF-induced receptor autophosphorylation can be confirmed with a further in vitro experiments in cells such as transfected CHO cells, which permanently express human VEGF-R2 receptor (KDR), are seeded in complete culture medium (with 10% fetal calf serum=FCS) in 6-well cell-culture plates and incubated at 37° C. under 5% CO2 until they show about 80% confluency. The compounds to be tested are then diluted in culture medium (without FCS, with 0.1% bovine serum albumin) and added to the cells. (Controls comprise medium without test compounds). After two hours of incubation at 37° C., recombinant VEGF is added; the final VEGF concentration is 20 ng/ml. After a further five minutes incubation at 37° C., the cells are washed twice with ice-cold PBS (phosphate-buffered saline) and immediately lysed in 100 μl lysis buffer per well. The lysates are then centrifuged to remove the cell nuclei, and the protein concentrations of the supernatants are determined using a commercial protein assay (BIORAD). The lysates can then either be immediately used or, if necessary, stored at −20° C.
The plates are then washed and the remaining free protein-binding sites are saturated with 3% TopBlock® (Juro, Cat. # TB232010) in phosphate buffered saline with Tween 20® (polyoxyethylen(20)sorbitane monolaurate, ICI/Uniquema) (PBST). The cell lysates (20 μg protein per well) are then incubated in these plates overnight at 4° C. together with an antiphosphotyrosine antibody coupled with alkaline phosphatase (PY20:AP from Zymed). […] The luminescence is measured in a Packard Top Count Microplate Scintillation Counter. The difference between the signal of the positive control (stimulated with VEGF) and that of the negative control (not stimulated with VEGF) corresponds to VEGF-induced VEGF-R2 phosphorylation (=100%). The activity of the tested substances is calculated as percent inhibition of VEGF-induced VEGF-R2 phosphorylation, wherein the concentration of substance that induces half the maximum inhibition is defined as the IC50 (inhibitory dose for 50% inhibition). […]
In general terms: In an ELISA, binding on a coated surface is turned into a signal by an enzyme label.

T2 sequence (P35968 20-1356): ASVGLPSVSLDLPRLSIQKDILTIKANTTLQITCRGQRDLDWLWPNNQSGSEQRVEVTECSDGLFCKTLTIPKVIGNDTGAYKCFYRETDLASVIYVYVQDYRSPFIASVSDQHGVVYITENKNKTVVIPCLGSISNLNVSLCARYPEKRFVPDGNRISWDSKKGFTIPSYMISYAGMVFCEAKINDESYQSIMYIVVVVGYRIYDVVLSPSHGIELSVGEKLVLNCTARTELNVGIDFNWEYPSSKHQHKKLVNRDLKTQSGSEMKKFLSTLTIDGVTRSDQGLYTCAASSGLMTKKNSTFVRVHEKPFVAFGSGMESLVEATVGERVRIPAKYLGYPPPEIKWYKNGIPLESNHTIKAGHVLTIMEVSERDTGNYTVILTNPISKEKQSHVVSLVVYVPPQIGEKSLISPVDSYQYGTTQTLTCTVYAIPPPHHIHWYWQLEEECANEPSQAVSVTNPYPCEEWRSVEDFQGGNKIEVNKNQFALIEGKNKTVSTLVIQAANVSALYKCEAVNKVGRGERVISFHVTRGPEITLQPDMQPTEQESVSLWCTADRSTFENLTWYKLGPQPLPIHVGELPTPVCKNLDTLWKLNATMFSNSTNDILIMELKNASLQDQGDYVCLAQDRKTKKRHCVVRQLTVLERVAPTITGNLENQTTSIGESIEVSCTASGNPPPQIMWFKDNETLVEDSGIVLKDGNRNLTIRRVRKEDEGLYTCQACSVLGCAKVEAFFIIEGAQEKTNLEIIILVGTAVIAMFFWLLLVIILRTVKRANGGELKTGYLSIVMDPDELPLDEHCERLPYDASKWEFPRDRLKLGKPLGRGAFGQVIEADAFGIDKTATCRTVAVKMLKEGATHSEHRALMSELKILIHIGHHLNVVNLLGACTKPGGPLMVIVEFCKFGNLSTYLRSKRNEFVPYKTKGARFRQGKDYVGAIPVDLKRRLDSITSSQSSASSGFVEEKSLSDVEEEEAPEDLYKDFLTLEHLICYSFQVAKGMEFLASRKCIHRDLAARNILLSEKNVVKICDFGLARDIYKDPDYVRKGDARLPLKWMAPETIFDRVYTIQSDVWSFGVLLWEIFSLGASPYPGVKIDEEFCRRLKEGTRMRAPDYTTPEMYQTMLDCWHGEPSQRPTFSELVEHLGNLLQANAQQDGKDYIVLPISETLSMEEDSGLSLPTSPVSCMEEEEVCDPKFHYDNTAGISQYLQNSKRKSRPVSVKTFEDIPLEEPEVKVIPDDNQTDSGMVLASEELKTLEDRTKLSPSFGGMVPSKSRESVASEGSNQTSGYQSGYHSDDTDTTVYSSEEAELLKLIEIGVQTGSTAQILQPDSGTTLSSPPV

`Cc1ccc(NC(=O)Nc2ccc(Oc3ccncc3)cc2)cc1` [Example 4]: in assay [1], the “c-Abl (% at 10 μM)” value is reported as 59%. Also, in assay [2], the “KDR trans (% at 10 μM)” value is given as 99%.
Take `CCc1ccc(NC(=O)N(C)c2ccc(Oc3ccncc3)cc2)cc1` [Example 5]: in assay [1], the “c-Abl (% at 10 μM)” value is given as 46%. Also, the “KDR trans (% at 10 μM)” value in assay [2] is reported as 99%.
Regarding `CN(C(=O)Nc1cccc(C(F)(F)F)c1)c1ccc(Oc2ccncc2)cc1` [Example 6], the “c-Abl (% at 10 μM)” value in assay [1] is recorded as 75%. Moreover, the “KDR trans (% at 10 μM)” value in assay [2] turned out to be 100%.
On to `CCCc1ccc(NC(=O)N(C)c2ccc(Oc3ccncc3)cc2)cc1` [Example 7], for which, in assay [1], the “c-Abl (% at 10 μM)” value is reported as 47%. For the same molecule, the “KDR trans (% at 10 μM)” value in assay [2] came out at 97%.
Taken in the same sequence, the figures for `Cc1ccc(NC(=O)N(C)c2ccc(Oc3ccncc3)cc2)cc1` [Example 8] were 48% and 78%.
In the case of `O=C(Nc1ccc(Oc2ccncc2)cc1)Nc1ccc(Br)c(C(F)(F)F)c1` [Example 9], the “c-Abl (% at 10 μM)” value in assay [1] is reported as 100%. Further, the “KDR trans (% at 10 μM)” value in assay [2] is reported as 92%.
In the case of `O=C(Nc1ccc(Oc2ccncc2)cc1)Nc1ccc(OCC(F)(F)F)c(C(F)(F)F)c1` [Example 10], in assay [1], the “c-Abl (% at 10 μM)” value came to 98%. Also, the “KDR trans (% at 10 μM)” value in assay [2] is recorded as 100%.
The matching figures for `COc1cc(NC(=O)Nc2ccc(Oc3ccncc3)cc2)cc(C(F)(F)F)c1` [Example 11]: 95% and 100%.
As to `CCCc1ccc(NC(=O)Nc2ccc(Cc3ccncc3)cc2)cc1` [Example 12], the “c-Abl (% at 10 μM)” value in assay [1] was determined as 33%. Moreover, the “KDR trans (% at 10 μM)” value in assay [2] was 97%.
Taken in the same sequence, the figures for `CCc1ccc(NC(=O)Nc2ccc(Cc3ccncc3)cc2)cc1` [Example 13] were 36% and 98%.
Consider `Cc1ccc(NC(=O)Nc2ccc(Cc3ccncc3)cc2)cc1` [Example 14], for which, in assay [1], the “c-Abl (% at 10 μM)” value was 26%. For the same molecule, the “KDR trans (% at 10 μM)” value in assay [2] is listed as 97%.
Regarding `O=C(Nc1ccc(Cc2ccncc2)cc1)Nc1cccc(C(F)(F)F)c1` [Example 15], the “c-Abl (% at 10 μM)” value in assay [1] was determined as 71%. For the same molecule, the “KDR trans (% at 10 μM)” value in assay [2] turned out to be 99%.
Consider `CCc1ccc(NC(=O)Cc2ccc(Oc3ccncc3)cc2)cc1` [Example 16, N-(4-pyridin-4-yl-oxy-phenyl)acetyl-(4-ethyl-phenyl)-amide], for which the “c-Abl (% at 10 μM)” value in assay [1] was determined as 66%. Besides, the “KDR trans (% at 10 μM)” value in assay [2] is given as 99%.
For `Cc1ccc(NC(=O)Cc2ccc(Oc3ccncc3)cc2)cc1` [Example 17], in assay [1], the “c-Abl (% at 10 μM)” value came to 18%. In addition, the “KDR trans (% at 10 μM)” value in assay [2] is given as 96%.
For `CCCc1ccc(NC(=O)Cc2ccc(Oc3ccncc3)cc2)cc1` [Example 18], the “c-Abl (% at 10 μM)” value in assay [1] came to 61%. For the same molecule, in assay [2], the “KDR trans (% at 10 μM)” value turned out to be 99%.
Turning to `O=C(Nc1cccc(C(F)(F)F)c1)N1CCc2cc(Oc3ccncc3)ccc21` [Example 19, 5(4-pyridyloxy)-N-(3-trifluoromethyl-phenyl)amino-carbonyl-2,3-dihydroindole], in assay [1], the “c-Abl (% at 10 μM)” value was found to be 92%. The “KDR trans (% at 10 μM)” value in assay [2] came to 86%.
As for `O=C(Nc1cccc(C(F)(F)F)c1)N1CCCc2cc(Oc3ccncc3)ccc21` [Example 20], the “c-Abl (% at 10 μM)” value in assay [1] is reported as 84%. The “KDR trans (% at 10 μM)” value in assay [2] was determined as 93%.
Taken in the same sequence, the figures for `O=C(Nc1ccc(Oc2cc(Cl)ncn2)cc1)Nc1cccc(C(F)(F)F)c1` [Example 21, N-(4-(6-Chloropyrimidin-4-yl)-oxyphenyl)-N′-(3-trifluoromethylphenyl)-urea] were 70% and 100%.
On to `Cc1cc(Oc2ccc(NC(=O)Nc3cccc(C(F)(F)F)c3)cc2)ccn1` [Example 30], for which the “c-Abl (% at 10 μM)” value in assay [1] is on record as 100%. The “KDR trans (% at 10 μM)” value in assay [2] was 98%.
For the molecule `O=C(Nc1ccc(Oc2cc(Nc3ccc(O)cc3)ncn2)cc1)Nc1ccc(OCC(F)(F)F)c(C(F)(F)F)c1` [Example 32], in assay [1], the “c-Abl (% at 10 μM)” value was 98%. For the same molecule, the “KDR trans (% at 10 μM)” value in assay [2] is 96%.
